Data published in patent publication US20230265614A1, “WATER INSOLUBLE, HIGH MELTING POINT SACCHARIDE FATTY ACID ESTERS (SFAE)” (GREENTECH GLOBAL PTE. LTD., priority 2021, published 2023).

Test: Solubility in water at 25° C. of specific SFAEs
Assay type: physicochemical
Details: water insoluble = does not dissolve in water at 25° C.

Solubility in Water at 25° C. | Substance
soluble | raffinose monolaurate
soluble | raffinose monostearate
Insoluble | trehalose dilaurate
Insoluble | trehalose dimyristate
Insoluble | trehalose dipalmitate
Insoluble | trehalose distearate
soluble | trehalose monolaurate
Insoluble | trehalose monomyristate
Insoluble | trehalose monopalmitate
Insoluble | trehalose monostearate
